# Values of other authors in patent US20030143266A1, “Cationic amphiphile micellar complexes” (GENZYME CORPORATION, priority 1999, published 2003).
# System: airway epithelial cells
# Settings: shown by elevation of cGMP levels, CFTR-dependent chloride transport, ciliary beat frequency
substance,measurement,value
CNP-22: C-type natriuretic peptide containing 22 amino acid; binds and activates guanylate cyclase-B receptor,binding to airway epithelial cells in vivo,Specific binding
